Data as given in publication PMC7494911.
Several values for one entry are separate records, joined by “and”; a condition that tells them apart may be missing. Equal entries are not always repeated. Where two headings read alike, the source gives them in different places.

Key:
[1] = system: αvβ6-mediated TGFβ activation; test: cells; assay type: cell-based, human; details: for activity: read-out: % inhibition of pSmad2 (NHBE cells); for IC50: Homo sapiens
pSmad2 in BAL cells = assay type: in vivo, mouse; details: bleomycin mice
Method: (§1) For the measurement of concentration-dependent effects of αvβ6 and TGFβR1 inhibitors on TGFβ activation and signaling in NHBE cells, pSmad2 (normalized to GAPDH) was measured. pSmad2 and GAPDH was quantified using the Milliplex TGFβ Signaling Magnetic Bead Panel 6 plex (Merck Millipore, Billerica, MA, USA) luminex assay according to the manufacturer’s instructions. pSmad2 was determined using the same method for in vivo and ex vivo tissue and BAL samples, however data were normalized to tSmad2. tSmad2 was measured in the Pathscan Total Smad2 sandwich ELISA kit (Cell Signaling Technologies, London, UK), according to the manufacturer’s instructions with standard curves generated using recombinant GST-Smad2. βIG-H3 was determined in mouse and human BAL fluid samples using the mouse or human βIG-H3 DuoSet ELISA kit (R&D Systems, Abingdon, USA) respectively, according to the manufacturer’s instructions. PAI-1 was determined in mouse and human BAL fluid samples using the mouse or human PAI-1 Total antigen ELISA kit (Molecular Innovations, Novi, MI, USA) respectively, according to the manufacturer’s instructions.
(§2) Animal welfare followed the requirements of the Home Office Code of Practice for the Housing and Care of Animals used in Scientific Procedures. […] Play tunnels and bedding material were used to provide environmental enrichment. […]

pSmad2 in lung tissue = test: Lung tissue pSmad2 in bleomycin-treated mice, single dose; assay type: in vivo, mouse
Method: as §1, §2

pSmad2 in IPF PCLS = test: pSmad2 in precision cut lung slices (PCLS) from IPF patients; assay type: cell-based, human; details: for IPF PCLS pSmad2/tSmad2 ratio: 1 µM compound, individual replicates n=1-3 (Fig 5f)
Method: Human fibrotic lung tissue was collected from human explants after transplantation. Tissue which the pathologist deemed suitable for research was inflated with 2–3% low boiling point agarose, with the agarose being allowed to set at 4 °C. PCLS were then cut at 400 μm on a vibrating microtome and cultured in DMEM media.

[2] = 30 mg/kg p.o., 2 h post dosing, in words
[3] = SB-525334 30 mg/kg p.o., 2 h, individual animals, 30 mg/kg

| SMILES | activity ([1]; Log [SB-525334] M -6) | activity ([1]; Log [SB-525334] M -9) | activity ([1]; Log [SB-525334] M -11.4) [%] | pIC50 for inhibition of αvβ6-mediated TGFβ activation (pSmad2) ([1]; NHBE cells) | pSmad2 levels in BAL cells (pSmad2 in BAL cells; [2]) | BAL cell pSmad2/tSmad2 ratio (pSmad2 in BAL cells; [3]) | pSmad2 levels in lung tissue (pSmad2 in lung tissue; [2]) | Lung tissue pSmad2/tSmad2 ratio (pSmad2 in lung tissue; [3]) | IPF PCLS pSmad2/tSmad2 ratio (pSmad2 in IPF PCLS; IPF PCLS) | % pSmad2 in IPF PCLS (pSmad2 in IPF PCLS; SB-525334 1µM) | pSmad2 levels in IPF PCLS (pSmad2 in IPF PCLS; in words) | IC50 ([1]; NHBE cells, read-out: IC50 for inhibition of αvβ6-mediated TGFβ activation (pSmad2)) [nM] | IC50 ([1]; NHBE cells, read-out: pIC50 for inhibition of αvβ6-mediated TGFβ activation (pSmad2) (converted)) [nM] | activity ([1]; Log [GSK3008348] M -9) | activity ([1]; Log [GSK3008348] M -10.8) [%] | activity [1] | IC50 (pSmad2 in IPF PCLS; Homo sapiens, IPF PCLS, 48 h, read-out: approximate IC50 for reduction of pSmad2) [nM] |
| --- | --- | --- | --- | --- | --- | --- | --- | --- | --- | --- | --- | --- | --- | --- | --- | --- | --- |
| Cc1cccc(-c2[nH]c(C(C)(C)C)nc2-c2ccc3nccnc3c2)n1 [SB-525334] | 15% and 11% and 10% and 14% | 138% and 105% and 82% and 100% | 114 | 7.28 ± 0.13 | significantly reduce | 1.33 and 0.67 and 0.7 and 1.48 and 0.61 and 0.44 and 2.35 and 1.1 and 1 | significantly reduce | 0.09 and 0.07 and 0.1 and 0.13 | 0.063 and 0.062 and 0.055 | 1% and 0% and -1% | – | – | – | – | – | – | – |
| O=C(O)C[C@@H]1Cc2ccc(OCCCNc3ccccn3)cc2CN(CC(F)(F)F)C1=O [SB-267268] | – | – | – | – | – | – | – | – | 0.766 and 0.64 and 0.76 | – | Neither compound inhibited pSmad2 levels | – | – | – | – | – | – |
| Cc1cc(C)n(-c2cccc([C@H](CC(=O)O)CN3CC[C@@H](CCc4ccc5c(n4)NCCC5)C3)c2)n1 [GSK3008348] | – | – | – | – | – | – | – | – | – | – | – | 0.15 | 0.741 | 47% and 37% and 58% and 41% | 108 | 92% and 95% | ~3 |
